Assay results: PubChem BioAssay AID1963836 (Molecular Pharmacology Branch, DTP, NCI, 2024)

System: 857933-349-R-J2-PDC complex spheroid viability
Assay: Anticancer human tumor 857933-349-R-J2-PDC patient-derived colon adenocarcinoma cell line growth inhibition [POLQ]
Conditions: for IC50: curve of first compound; for viability, T/C: stronger effect = lower value
Outline: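 Complex spheroid viability model combining PDC tumour cells with endothelial (HUVEC) and MSC stromal cells. Novobiocin, ART-558 or RP6685 were tested singly and in combination with standard and investigational anticancer drugs. Each was titrated in half-log steps from near clinical Cmax, or from 10 microM where Cmax was unknown.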

[1] = second compound 0.0316 µM, first compound 0.0316 µM
[2] = second compound 0.0316 µM, first compound 0.1 µM
[3] = second compound 0.0316 µM, first compound 0.316 µM
[4] = second compound 0.0316 µM, first compound 1 µM
[5] = second compound 0.0316 µM, first compound 3.16 µM
[6] = second compound 0.0316 µM, first compound 10 µM
[7] = second compound 0.1 µM, first compound 0.0316 µM
[8] = second compound 0.1 µM, first compound 0.1 µM
[9] = second compound 0.1 µM, first compound 0.316 µM
[10] = second compound 0.1 µM, first compound 1 µM
[11] = second compound 0.1 µM, first compound 3.16 µM
[12] = second compound 0.1 µM, first compound 10 µM
[13] = second compound 0.316 µM, first compound 0.0316 µM
[14] = second compound 0.316 µM, first compound 0.1 µM
[15] = second compound 0.316 µM, first compound 0.316 µM
[16] = second compound 0.316 µM, first compound 1 µM
[17] = second compound 0.316 µM, first compound 3.16 µM
[18] = second compound 0.316 µM, first compound 10 µM
[19] = second compound 1 µM, first compound 0.0316 µM
[20] = second compound 1 µM, first compound 0.1 µM
[21] = second compound 1 µM, first compound 0.316 µM
[22] = second compound 1 µM, first compound 1 µM
[23] = second compound 1 µM, first compound 3.16 µM
[24] = second compound 1 µM, first compound 10 µM
[25] = second compound 3.16 µM, first compound 0.0316 µM
[26] = second compound 3.16 µM, first compound 0.1 µM
[27] = second compound 3.16 µM, first compound 0.316 µM
[28] = second compound 3.16 µM, first compound 1 µM
[29] = second compound 3.16 µM, first compound 3.16 µM
[30] = second compound 3.16 µM, first compound 10 µM
[31] = second compound 10 µM, first compound 0.0316 µM
[32] = second compound 10 µM, first compound 0.1 µM
[33] = second compound 10 µM, first compound 0.316 µM
[34] = second compound 10 µM, first compound 1 µM
[35] = second compound 10 µM, first compound 3.16 µM
[36] = second compound 10 µM, first compound 10 µM
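Note: spheroids exposed to compounds for seven days before readout.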

For `CC(=O)O[C@H]1C(=O)[C@@]2(C)[C@H]([C@H](OC(=O)c3ccccc3)[C@]3(O)C[C@H](OC(=O)[C@H](O)[C@@H](NC(=O)c4ccccc4)c4ccccc4)C(C)=C1C3(C)C)[C@]1(OC(C)=O)CO[C@@H]1C[C@@H]2O` + Nc1ccc(C#CCN(C(=O)Cc2ncc(C(F)(F)F)cc2C(F)(F)F)c2ccc(F)cc2)nn1, the IC50 (second compound 0.0316 µM) was under 0.00949 µM, the IC50 (second compound 0.1 µM) was under 0.00949 µM and the IC50 (second compound 0.316 µM) was 0.0128 µM. For the same compound, the IC50 (second compound 1 µM) was 0.0112 µM, the IC50 (second compound 3.16 µM) was 0.00973 µM and the IC50 (second compound 10 µM) was 0.0113 µM. For the same compound, the viability, T/C (second compound 0.0316 µM, first compound 0.00949 µM) was 45%, the viability, T/C (second compound 0.0316 µM, first compound 0.03 µM) was 20.3% and the viability, T/C (second compound 0.0316 µM, first compound 0.0949 µM) was 13.2%. It also gave a viability, T/C (second compound 0.0316 µM, first compound 0.3 µM) of 10.6%, a viability, T/C (second compound 0.0316 µM, first compound 0.949 µM) of 12.3% and a viability, T/C (second compound 0.0316 µM, first compound 3 µM) of 15.7%. The viability, T/C (second compound 0.1 µM, first compound 0.00949 µM) was 45.8%, the viability, T/C (second compound 0.1 µM, first compound 0.03 µM) was 22.9% and the viability, T/C (second compound 0.1 µM, first compound 0.0949 µM) was 10.2%. It also gave a viability, T/C (second compound 0.1 µM, first compound 0.3 µM) of 15.6%, a viability, T/C (second compound 0.1 µM, first compound 0.949 µM) of 11.8% and a viability, T/C (second compound 0.1 µM, first compound 3 µM) of 15.2%. It also gave a viability, T/C (second compound 0.316 µM, first compound 0.00949 µM) of 58.1%, a viability, T/C (second compound 0.316 µM, first compound 0.03 µM) of 27.4% and a viability, T/C (second compound 0.316 µM, first compound 0.0949 µM) of 12.8%. The viability, T/C (second compound 0.316 µM, first compound 0.3 µM) was 14.9%, the viability, T/C (second compound 0.316 µM, first compound 0.949 µM) was 15.1% and the viability, T/C (second compound 0.316 µM, first compound 3 µM) was 17.1%. The viability, T/C (second compound 1 µM, first compound 0.00949 µM) was 54.5%, the viability, T/C (second compound 1 µM, first compound 0.03 µM) was 24.8% and the viability, T/C (second compound 1 µM, first compound 0.0949 µM) was 14.6%. It also gave a viability, T/C (second compound 1 µM, first compound 0.3 µM) of 14%, a viability, T/C (second compound 1 µM, first compound 0.949 µM) of 17.4% and a viability, T/C (second compound 1 µM, first compound 3 µM) of 14.8%. It also gave a viability, T/C (second compound 3.16 µM, first compound 0.00949 µM) of 50.6%, a viability, T/C (second compound 3.16 µM, first compound 0.03 µM) of 20.1% and a viability, T/C (second compound 3.16 µM, first compound 0.0949 µM) of 16.1%. It also gave a viability, T/C (second compound 3.16 µM, first compound 0.3 µM) of 11.7%, a viability, T/C (second compound 3.16 µM, first compound 0.949 µM) of 17.3% and a viability, T/C (second compound 3.16 µM, first compound 3 µM) of 18.6%. For the same compound, the viability, T/C (second compound 10 µM, first compound 0.00949 µM) was 54.2%, the viability, T/C (second compound 10 µM, first compound 0.03 µM) was 26.5% and the viability, T/C (second compound 10 µM, first compound 0.0949 µM) was 16.8%. It also gave a viability, T/C (second compound 10 µM, first compound 0.3 µM) of 14.9%, a viability, T/C (second compound 10 µM, first compound 0.949 µM) of 14.5% and a viability, T/C (second compound 10 µM, first compound 3 µM) of 20.3%.

With `O=C(c1cc(Cc2n[nH]c(=O)c3ccccc23)ccc1F)N1CCN(C(=O)C2CC2)CC1` + Nc1ccc(C#CCN(C(=O)Cc2ncc(C(F)(F)F)cc2C(F)(F)F)c2ccc(F)cc2)nn1 the IC50 (second compound 0.0316 µM) was over 10 µM, the IC50 (second compound 0.1 µM) was over 10 µM and the IC50 (second compound 0.316 µM) was over 10 µM. It also gave an IC50 (second compound 1 µM) of over 10 µM, an IC50 (second compound 3.16 µM) of over 10 µM and an IC50 (second compound 10 µM) of over 10 µM. For the same compound, the viability, T/C [1] was 84.3%, the viability, T/C [2] was 109% and the viability, T/C [3] was 94.2%. It also gave a viability, T/C [4] of 81.7%, a viability, T/C [5] of 97.1% and a viability, T/C [6] of 88.1%. It also gave a viability, T/C [7] of 102%, a viability, T/C [8] of 104% and a viability, T/C [9] of 105%. It also gave a viability, T/C [10] of 84.9%, a viability, T/C [11] of 99.1% and a viability, T/C [12] of 106%. The viability, T/C [13] was 101%, the viability, T/C [14] was 81.2% and the viability, T/C [15] was 83.8%. The viability, T/C [16] was 94.7%, the viability, T/C [17] was 98.2% and the viability, T/C [18] was 83.4%. It also gave a viability, T/C [19] of 104%, a viability, T/C [20] of 98.4% and a viability, T/C [21] of 90.5%. The viability, T/C [22] was 94.8%, the viability, T/C [23] was 82.6% and the viability, T/C [24] was 87.5%. It also gave a viability, T/C [25] of 90.7%, a viability, T/C [26] of 106% and a viability, T/C [27] of 92.9%. It also gave a viability, T/C [28] of 95%, a viability, T/C [29] of 101% and a viability, T/C [30] of 90.9%. It also gave a viability, T/C [31] of 88.1%, a viability, T/C [32] of 93.9% and a viability, T/C [33] of 95.5%. For the same compound, the viability, T/C [34] was 89%, the viability, T/C [35] was 74% and the viability, T/C [36] was 83.9%.

`CNCc1ccc(-c2[nH]c3cc(F)cc4c3c2CCNC4=O)cc1` + Cc1cccc(N(C)C(=O)C2C(O)CCN2c2nc(C)cc(C(F)(F)F)c2C#N)c1 gave an IC50 (second compound 0.0316 µM) of over 10 µM, an IC50 (second compound 0.1 µM) of over 10 µM and an IC50 (second compound 0.316 µM) of over 10 µM. For the same compound, the IC50 (second compound 1 µM) was over 10 µM, the IC50 (second compound 3.16 µM) was over 10 µM and the IC50 (second compound 10 µM) was over 10 µM. The viability, T/C [1] was 98.9%, the viability, T/C [2] was 111% and the viability, T/C [3] was 96.3%. It also gave a viability, T/C [4] of 99.2%, a viability, T/C [5] of 78.9% and a viability, T/C [6] of 99.7%. The viability, T/C [7] was 103%, the viability, T/C [8] was 90.7% and the viability, T/C [9] was 90.7%. The viability, T/C [10] was 76.4%, the viability, T/C [11] was 102% and the viability, T/C [12] was 104%. For the same compound, the viability, T/C [13] was 97.3%, the viability, T/C [14] was 104% and the viability, T/C [15] was 108%. It also gave a viability, T/C [16] of 95.5%, a viability, T/C [17] of 103% and a viability, T/C [18] of 89.5%. It also gave a viability, T/C [19] of 120%, a viability, T/C [20] of 98.5% and a viability, T/C [21] of 90.7%. It also gave a viability, T/C [22] of 86.5%, a viability, T/C [23] of 104% and a viability, T/C [24] of 79.3%. The viability, T/C [25] was 88.7%, the viability, T/C [26] was 112% and the viability, T/C [27] was 95.7%. The viability, T/C [28] was 105%, the viability, T/C [29] was 95.4% and the viability, T/C [30] was 80.5%. For the same compound, the viability, T/C [31] was 102%, the viability, T/C [32] was 106% and the viability, T/C [33] was 117%. For the same compound, the viability, T/C [34] was 68.4%, the viability, T/C [35] was 116% and the viability, T/C [36] was 86.3%.
